Measured values published in ChEMBL document CHEMBL5465560, “Selectivity Literature for EUbOPEN Chemogenomic Library” (2024).

Legend:
[1] = target: Ribosomal protein S6 kinase alpha-3 (Homo sapiens, UniProt P51812); experiment: Selectivity interaction (KinomeScan (DiscoverX)) EUB0000666a RPS6KA3; settings: at 10 µM
[2] = target: Protein-tyrosine kinase 6 (Homo sapiens, UniProt Q13882); settings: at 10 µM
[3] = target: Serine/threonine-protein kinase 10 (Homo sapiens) (UniProt O94804); experiment: Selectivity interaction (ActivX KiNativ screen (kinase selectivity in THP-1 cell lysates)) EUB0000639a STK10; assay type: subcellular; settings: lysate, at 0.01 µM
Sequence of Serine/threonine-protein kinase 10 (Homo sapiens) (O94804 whole entry, looked up): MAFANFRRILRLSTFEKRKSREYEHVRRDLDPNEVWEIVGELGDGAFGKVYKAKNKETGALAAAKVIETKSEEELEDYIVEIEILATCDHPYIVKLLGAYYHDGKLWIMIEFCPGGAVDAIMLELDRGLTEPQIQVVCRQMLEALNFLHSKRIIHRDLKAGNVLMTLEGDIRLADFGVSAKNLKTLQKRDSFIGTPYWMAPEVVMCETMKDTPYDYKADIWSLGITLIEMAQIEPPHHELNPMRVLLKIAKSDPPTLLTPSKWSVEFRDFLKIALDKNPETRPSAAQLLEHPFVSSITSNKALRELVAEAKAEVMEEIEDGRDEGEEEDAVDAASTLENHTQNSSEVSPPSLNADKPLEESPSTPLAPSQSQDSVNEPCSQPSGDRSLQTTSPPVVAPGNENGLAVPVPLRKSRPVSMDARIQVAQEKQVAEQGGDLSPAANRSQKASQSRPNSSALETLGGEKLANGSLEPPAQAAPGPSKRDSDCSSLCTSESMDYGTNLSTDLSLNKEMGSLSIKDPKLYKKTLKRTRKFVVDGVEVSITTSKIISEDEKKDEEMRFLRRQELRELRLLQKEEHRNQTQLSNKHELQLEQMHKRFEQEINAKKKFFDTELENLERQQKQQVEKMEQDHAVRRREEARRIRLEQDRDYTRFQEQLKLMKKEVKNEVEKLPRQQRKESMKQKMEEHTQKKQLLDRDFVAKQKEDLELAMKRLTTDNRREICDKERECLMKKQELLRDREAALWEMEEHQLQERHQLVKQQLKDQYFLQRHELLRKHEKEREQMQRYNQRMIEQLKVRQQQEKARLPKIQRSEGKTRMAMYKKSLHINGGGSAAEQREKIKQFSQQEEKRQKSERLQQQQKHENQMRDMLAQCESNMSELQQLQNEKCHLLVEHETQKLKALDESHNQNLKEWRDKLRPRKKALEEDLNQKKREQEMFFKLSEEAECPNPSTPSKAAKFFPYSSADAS

[4] = target: T1, Inhibitor of nuclear factor kappa-B kinase subunit epsilon (Homo sapiens) (UniProt Q14164); experiment: Selectivity interaction (ActivX KiNativ screen (kinase selectivity in THP-1 cell lysates)) EUB0000639a IKBKE; assay type: subcellular; settings: lysate, at 0.01 µM
T1 sequence (whole entry): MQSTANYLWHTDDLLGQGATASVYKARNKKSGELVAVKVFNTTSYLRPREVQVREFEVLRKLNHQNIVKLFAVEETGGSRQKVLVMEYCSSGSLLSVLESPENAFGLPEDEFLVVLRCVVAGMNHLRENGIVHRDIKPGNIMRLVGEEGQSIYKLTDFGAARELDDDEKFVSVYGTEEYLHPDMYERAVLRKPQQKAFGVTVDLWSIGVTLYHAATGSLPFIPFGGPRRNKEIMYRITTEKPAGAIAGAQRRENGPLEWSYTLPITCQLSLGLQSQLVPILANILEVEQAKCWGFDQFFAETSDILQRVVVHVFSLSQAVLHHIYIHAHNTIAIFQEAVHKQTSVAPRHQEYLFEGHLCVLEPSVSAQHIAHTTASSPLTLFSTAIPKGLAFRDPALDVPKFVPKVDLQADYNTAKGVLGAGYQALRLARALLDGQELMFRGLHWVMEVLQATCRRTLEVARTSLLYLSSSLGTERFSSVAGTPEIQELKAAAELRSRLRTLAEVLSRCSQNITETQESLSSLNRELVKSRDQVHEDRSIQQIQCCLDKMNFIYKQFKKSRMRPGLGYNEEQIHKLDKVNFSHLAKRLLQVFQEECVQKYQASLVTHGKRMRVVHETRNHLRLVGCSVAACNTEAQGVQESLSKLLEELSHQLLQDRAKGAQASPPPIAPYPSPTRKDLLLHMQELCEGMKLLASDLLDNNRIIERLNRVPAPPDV

[5] = target: Dual specificity protein kinase CLK2 (Homo sapiens, UniProt P49760); experiment: Selectivity interaction (ProQinase) EUB0000171b CLK2
Sequence of Dual specificity protein kinase CLK2 (P49760 whole entry, looked up): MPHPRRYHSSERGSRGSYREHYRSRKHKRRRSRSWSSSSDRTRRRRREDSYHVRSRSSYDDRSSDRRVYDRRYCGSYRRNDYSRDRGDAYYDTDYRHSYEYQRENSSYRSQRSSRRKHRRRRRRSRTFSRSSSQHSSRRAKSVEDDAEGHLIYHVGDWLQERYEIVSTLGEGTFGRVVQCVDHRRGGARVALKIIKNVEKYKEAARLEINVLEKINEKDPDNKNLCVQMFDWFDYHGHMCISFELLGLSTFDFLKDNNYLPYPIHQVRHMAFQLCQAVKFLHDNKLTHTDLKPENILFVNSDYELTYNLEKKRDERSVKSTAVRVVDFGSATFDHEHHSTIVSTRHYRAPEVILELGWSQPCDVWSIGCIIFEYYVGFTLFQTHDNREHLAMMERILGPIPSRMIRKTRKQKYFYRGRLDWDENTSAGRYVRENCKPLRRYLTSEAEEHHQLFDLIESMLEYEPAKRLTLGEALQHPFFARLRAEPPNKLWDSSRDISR

[6] = target: Serine/threonine-protein kinase MRCK beta (Homo sapiens) (UniProt Q9Y5S2); experiment: Selectivity interaction (KinomeScan (DiscoverX)) EUB0000695a CDC42BPB; settings: at 100 nM
Sequence of Serine/threonine-protein kinase MRCK beta (Homo sapiens) (Q9Y5S2 whole entry): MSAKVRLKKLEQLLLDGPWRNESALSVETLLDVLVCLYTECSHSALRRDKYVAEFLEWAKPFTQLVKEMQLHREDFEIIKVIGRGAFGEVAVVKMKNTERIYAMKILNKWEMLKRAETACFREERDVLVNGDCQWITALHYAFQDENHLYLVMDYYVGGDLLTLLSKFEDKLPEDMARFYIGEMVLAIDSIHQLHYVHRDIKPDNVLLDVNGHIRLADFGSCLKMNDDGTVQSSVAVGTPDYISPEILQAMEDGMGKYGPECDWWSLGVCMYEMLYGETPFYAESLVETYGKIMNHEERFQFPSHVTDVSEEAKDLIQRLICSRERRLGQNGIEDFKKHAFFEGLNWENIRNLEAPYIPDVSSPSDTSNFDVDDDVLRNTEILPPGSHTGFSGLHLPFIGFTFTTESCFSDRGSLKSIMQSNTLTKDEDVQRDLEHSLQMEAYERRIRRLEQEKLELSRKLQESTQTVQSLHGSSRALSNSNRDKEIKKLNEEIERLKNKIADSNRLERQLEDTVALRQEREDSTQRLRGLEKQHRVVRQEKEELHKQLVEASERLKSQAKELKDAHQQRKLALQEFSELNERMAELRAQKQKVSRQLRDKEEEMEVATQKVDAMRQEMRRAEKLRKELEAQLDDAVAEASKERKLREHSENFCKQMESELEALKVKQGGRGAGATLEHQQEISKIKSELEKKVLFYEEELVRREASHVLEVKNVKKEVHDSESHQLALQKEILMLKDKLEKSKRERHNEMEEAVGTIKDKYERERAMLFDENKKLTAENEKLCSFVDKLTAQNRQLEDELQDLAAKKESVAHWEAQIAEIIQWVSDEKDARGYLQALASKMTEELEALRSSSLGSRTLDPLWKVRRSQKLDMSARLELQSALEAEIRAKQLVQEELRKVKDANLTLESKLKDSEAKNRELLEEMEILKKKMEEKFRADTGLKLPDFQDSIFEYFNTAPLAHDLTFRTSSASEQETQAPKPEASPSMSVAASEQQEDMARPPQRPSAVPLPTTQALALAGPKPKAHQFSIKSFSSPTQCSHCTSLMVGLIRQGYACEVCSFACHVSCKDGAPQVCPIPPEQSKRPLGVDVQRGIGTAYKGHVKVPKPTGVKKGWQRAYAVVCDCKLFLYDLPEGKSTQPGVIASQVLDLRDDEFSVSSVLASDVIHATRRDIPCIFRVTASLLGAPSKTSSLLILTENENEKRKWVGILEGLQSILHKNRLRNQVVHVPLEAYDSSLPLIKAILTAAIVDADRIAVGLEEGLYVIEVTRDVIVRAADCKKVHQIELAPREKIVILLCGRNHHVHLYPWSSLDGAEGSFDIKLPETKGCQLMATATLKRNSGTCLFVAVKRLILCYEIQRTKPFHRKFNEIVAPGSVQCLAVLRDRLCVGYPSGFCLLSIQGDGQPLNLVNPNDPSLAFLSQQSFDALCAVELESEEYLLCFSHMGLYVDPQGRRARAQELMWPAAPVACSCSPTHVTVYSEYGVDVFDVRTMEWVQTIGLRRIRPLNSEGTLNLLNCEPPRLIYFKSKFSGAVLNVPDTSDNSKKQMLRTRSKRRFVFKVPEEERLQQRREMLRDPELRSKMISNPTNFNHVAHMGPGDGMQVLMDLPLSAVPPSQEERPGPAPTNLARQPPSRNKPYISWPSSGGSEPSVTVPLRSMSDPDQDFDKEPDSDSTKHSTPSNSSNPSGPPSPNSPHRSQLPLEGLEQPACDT

[7] = target: Cyclin-dependent kinase-like 1 (Homo sapiens) (UniProt Q00532); experiment: Selectivity interaction (Kinase panel (DSF assay)) EUB0001559a CDKL1
Sequence of Cyclin-dependent kinase-like 1 (Homo sapiens) (Q00532 whole entry): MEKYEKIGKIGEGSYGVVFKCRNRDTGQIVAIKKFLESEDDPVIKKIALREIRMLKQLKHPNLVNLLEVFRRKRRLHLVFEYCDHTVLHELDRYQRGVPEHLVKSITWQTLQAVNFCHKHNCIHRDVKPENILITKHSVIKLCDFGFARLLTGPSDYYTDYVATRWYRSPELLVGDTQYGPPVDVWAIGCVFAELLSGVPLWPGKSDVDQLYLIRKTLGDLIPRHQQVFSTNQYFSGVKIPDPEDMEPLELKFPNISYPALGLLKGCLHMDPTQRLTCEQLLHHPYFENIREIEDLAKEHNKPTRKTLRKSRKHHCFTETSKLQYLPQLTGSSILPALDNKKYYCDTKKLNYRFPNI

[8] = target: Serine/threonine-protein kinase pim-3 (Homo sapiens) (UniProt Q86V86); experiment: Selectivity interaction (Kinase panel (DSF assay)) EUB0001558a PIM3
[9] = target: Cyclin-dependent kinase 2 (Homo sapiens, UniProt P24941); experiment: Selectivity interaction (KinomeScan (DiscoverX)) EUB0000045b CDK2
[10] = Selectivity interaction (KinomeScan (DiscoverX)) EUB0000045b CDPK1
[11] = target: T2, Serine/threonine-protein kinase Nek1 (Homo sapiens) (UniProt Q96PY6); experiment: Selectivity interaction (KinomeScan (DiscoverX)) EUB0000229b NEK1; settings: at 10 µM
T2 sequence (whole entry): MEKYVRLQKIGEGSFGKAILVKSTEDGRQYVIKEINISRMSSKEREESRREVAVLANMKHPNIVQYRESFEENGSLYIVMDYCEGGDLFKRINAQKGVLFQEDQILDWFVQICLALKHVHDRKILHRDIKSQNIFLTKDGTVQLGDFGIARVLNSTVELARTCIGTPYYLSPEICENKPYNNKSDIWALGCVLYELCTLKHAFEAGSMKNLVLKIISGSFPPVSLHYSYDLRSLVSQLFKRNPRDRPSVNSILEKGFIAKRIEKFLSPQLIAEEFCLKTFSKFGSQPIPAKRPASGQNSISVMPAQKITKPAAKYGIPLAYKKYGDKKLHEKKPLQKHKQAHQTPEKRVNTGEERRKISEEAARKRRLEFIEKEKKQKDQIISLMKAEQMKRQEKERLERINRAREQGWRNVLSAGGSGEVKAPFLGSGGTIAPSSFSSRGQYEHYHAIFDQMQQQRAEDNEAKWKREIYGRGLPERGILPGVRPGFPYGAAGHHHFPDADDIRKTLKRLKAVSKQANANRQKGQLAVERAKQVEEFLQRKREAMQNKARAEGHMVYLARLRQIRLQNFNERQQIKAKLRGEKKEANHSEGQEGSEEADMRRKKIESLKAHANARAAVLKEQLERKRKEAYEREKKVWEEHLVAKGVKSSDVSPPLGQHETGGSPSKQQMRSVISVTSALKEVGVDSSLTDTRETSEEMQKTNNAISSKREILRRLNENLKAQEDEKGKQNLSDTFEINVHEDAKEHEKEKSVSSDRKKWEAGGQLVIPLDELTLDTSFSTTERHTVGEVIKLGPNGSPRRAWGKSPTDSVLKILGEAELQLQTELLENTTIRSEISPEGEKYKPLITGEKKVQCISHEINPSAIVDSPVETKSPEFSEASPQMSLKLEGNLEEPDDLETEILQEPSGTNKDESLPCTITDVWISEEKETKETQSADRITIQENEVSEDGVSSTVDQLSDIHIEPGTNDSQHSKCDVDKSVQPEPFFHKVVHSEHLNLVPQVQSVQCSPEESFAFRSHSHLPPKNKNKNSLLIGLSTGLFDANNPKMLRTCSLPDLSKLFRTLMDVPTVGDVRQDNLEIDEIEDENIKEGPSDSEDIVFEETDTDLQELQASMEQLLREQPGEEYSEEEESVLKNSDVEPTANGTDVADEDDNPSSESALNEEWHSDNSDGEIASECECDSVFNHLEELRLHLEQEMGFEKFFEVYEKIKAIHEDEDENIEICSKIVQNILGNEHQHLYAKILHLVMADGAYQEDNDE

[12] = target: Serine/threonine-protein kinase VRK2 (Homo sapiens) (UniProt Q86Y07); experiment: Selectivity interaction (KinomeScan (DiscoverX)) EUB0000618a VRK2; settings: at 10 µM

Sequence of Ribosomal protein S6 kinase alpha-3 (P51812 whole entry): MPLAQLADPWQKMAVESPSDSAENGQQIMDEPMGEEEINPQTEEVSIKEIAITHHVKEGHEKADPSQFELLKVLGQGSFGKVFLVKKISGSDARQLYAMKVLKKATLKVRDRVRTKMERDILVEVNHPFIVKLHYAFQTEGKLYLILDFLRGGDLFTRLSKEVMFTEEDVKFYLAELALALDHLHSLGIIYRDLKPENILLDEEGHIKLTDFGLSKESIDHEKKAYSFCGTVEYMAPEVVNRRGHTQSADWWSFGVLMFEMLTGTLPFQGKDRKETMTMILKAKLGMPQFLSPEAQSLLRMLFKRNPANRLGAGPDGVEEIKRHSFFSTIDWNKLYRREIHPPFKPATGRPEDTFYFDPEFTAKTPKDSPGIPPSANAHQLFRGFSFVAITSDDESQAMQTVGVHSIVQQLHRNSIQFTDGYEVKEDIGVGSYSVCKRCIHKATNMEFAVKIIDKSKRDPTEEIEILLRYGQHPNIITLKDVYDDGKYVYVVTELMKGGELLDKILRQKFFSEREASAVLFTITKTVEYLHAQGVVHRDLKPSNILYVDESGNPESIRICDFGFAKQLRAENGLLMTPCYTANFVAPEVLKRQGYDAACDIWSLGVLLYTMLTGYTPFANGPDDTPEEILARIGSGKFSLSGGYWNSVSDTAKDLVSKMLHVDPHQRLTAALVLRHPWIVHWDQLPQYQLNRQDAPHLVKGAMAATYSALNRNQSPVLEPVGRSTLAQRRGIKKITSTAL
Sequence of Protein-tyrosine kinase 6 (Q13882 whole entry, looked up): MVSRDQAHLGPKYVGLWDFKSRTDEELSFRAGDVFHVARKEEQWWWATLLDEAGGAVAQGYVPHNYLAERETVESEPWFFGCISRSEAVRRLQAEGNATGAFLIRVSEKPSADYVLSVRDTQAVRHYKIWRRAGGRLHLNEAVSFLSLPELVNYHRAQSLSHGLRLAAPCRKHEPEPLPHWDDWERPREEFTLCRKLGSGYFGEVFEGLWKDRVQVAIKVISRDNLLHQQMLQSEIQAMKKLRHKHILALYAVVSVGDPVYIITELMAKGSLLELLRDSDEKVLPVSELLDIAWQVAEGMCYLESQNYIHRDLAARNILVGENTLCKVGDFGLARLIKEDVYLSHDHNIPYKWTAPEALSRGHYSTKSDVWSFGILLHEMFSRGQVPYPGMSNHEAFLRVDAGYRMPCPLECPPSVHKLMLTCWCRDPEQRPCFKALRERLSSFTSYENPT

Which % of control [1] does the source give for `O=C(NOC[C@H](O)CO)c1ccc(F)c(F)c1Nc1ccc(I)cc1F` here?
The % of control was 100%.

For `CCN(CC)CCCCNc1ncc2cc(-c3cc(OC)cc(OC)c3)c(NC(=O)NC(C)(C)C)nc2n1`, which % of control [2] is on record?
Its % of control is 100%.

Which % of inhibition [3] does the source give for `CC[C@@H]1[C@H](F)C(=O)N[C@@H]1COc1nccc2cc(C(N)=O)c(OC)cc12` [ZIMLOVISERTIB] here?
The % of inhibition was -34.8%.

And the % of inhibition [4]?
Its % of inhibition is -51.9%.

Which results are given for `C=CC(=O)Nc1cccc(C(=O)Nc2ccc(Nc3cc(-c4[nH]c(SC)nc4C)ccn3)cc2)c1`?
% of control ([5]; at 1 µM): 81%; % of control ([5]; at 5 µM): 51%

For `Cc1cc(F)c(C(=O)Nc2cccc(-c3nncn3C(C)C)n2)cc1-n1cnc(C2CC2)c1`, which % of control [6] is on record?
Its % of control is 100%.

With `CN(C(=O)c1cnn2cccnc12)c1cc2c(cc1N1CCOCC1)C(=O)N(C[C@@H](F)C(C)(C)O)C2` as the compound, how does the dTM [7] read?
Its dTM is 1.2 K.

Which dTM [8] does the source give for `CC(C)(O)[C@H](F)CN1Cc2cc(NC(=O)c3cnn4cccnc34)c(N3CCOCC3)cc2C1=O` here?
The dTM was 1 K.

With `C=CC(=O)Nc1cc(-n2c(=O)ccc3cnc4ccc(-c5ccc(NS(C)(=O)=O)cc5)cc4c32)ccc1C` as the compound, how does the % of control ([9]; at 1 µM) read?
The % of control was 95%.

And the % of control ([9]; at 10 µM)?
The % of control was 100%.

And the % of control ([10]; at 1 µM)?
Its % of control is 100%.

And the % of control ([10]; at 10 µM)?
Its % of control is 62%.

For `COc1cc(N(C)c2ccnc3ccc(C(F)(F)F)cc23)cc(OC)c1OC`, which % binding [11] is on record?
The % binding was 78%.

For `O[C@H]1CC[C@H](Nc2ncc3nc(Nc4c(F)cc(F)cc4F)n([C@H]4CCOC4)c3n2)CC1`, which % of control [12] is on record?
Its % of control is 100%.
